Measurements: US20140228349A1, “5,7-SUBSTITUTED-IMIDAZO[1,2-C]PYRIMIDINES” (Array BioPharma Inc., priority 2011, published 2014)
pIC50: −log10 of the molar value.

How the values were obtained:
Assay type in all cases: biochemical
Human Tyk2 kinase domain = target: T1, Human Tyk2 kinase domain (Homo sapiens, UniProt P29597); assay: Tyk2 Inhibition Assay (Omnia kinase fluorescence peptide substrate); details: averaged IC50 ranges; 10 μM (Km app) or 1 mM ATP, 2 nM Tyk2
T1 construct: comprising amino acids 886 to 1187; His10 (10 histidine residues) (C, cleaved yes); made in house
T1 sequence (P29597 886-1187): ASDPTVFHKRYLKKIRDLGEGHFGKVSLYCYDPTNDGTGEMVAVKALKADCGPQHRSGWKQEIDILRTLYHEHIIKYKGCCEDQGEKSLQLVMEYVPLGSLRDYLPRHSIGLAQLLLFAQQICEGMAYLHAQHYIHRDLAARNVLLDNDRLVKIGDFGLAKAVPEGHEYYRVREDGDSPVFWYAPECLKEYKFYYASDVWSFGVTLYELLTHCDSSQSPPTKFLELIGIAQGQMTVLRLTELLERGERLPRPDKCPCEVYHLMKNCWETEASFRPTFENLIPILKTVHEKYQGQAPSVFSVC
From the text: (§1) The assays described in Examples A, B, C and D for the determination of Tyk2, JAK1, JAK2 and JAK3 kinase activity, respectively, utilized the Omnia® Kinase fluorescence peptide substrate-based technology (Invitrogen). The specific components of the assay mixture are described in Examples A, B, C and D. In these assays, Mg^2+ is chelated upon phosphorylation of the Omnia peptide by the kinase to form a bridge between the chelation-enhanced fluorophore Sox and the phosphate, resulting in an increase in fluorescence emission at 485 nm when excited at […]. The reactions were therefore read at excitation 360 nm and emission was measured at 485 nm every 50 seconds for 45 minutes using a PerkinElmer EnVision Multilabel Plate Reader.
(§2) The final buffer conditions for Tyk2, JAK1, JAK2, and JAK3 assays were as follows: 25 mM HEPES, pH 7.4, 10 mM MgCl2, 0.01% Triton X-100 and 1 mM DTT.
(§3) Compounds were prepared at 50× the final concentration in DMSO by conducting 3-fold serial dilutions from a 500-μM intermediate dilution to give a 10-point dosing curve having a high dose of 10 μM. Two-μL aliquots of these were transferred to a fresh plate for a ten-fold intermediate dilution with assay buffer. Five-μL aliquots of the diluted compounds were then transferred to 20-μL of assay mixtures described in Examples A, B, C and D for a final concentration of DMSO of 2%. A standard or reference compound was typically included on each assay plate to validate that plate. For each plate, percent of control (POC) values were calculated for each well according to the following equation: […]
(§4) IC50's were estimated from the POC's using a standard 4-parameter logistic model:
(§5) The IC50 is defined as the concentration of inhibitor at which the POC equals 50 for the fitted curve.
Compounds of Formula I were screened for their ability to inhibit Tyk2 using the general enzyme inhibition assay method, in which the assay mixture contained 10 μM (Km app) or 1 mM ATP, 8 μM Omnia® Y12 peptide (Catalog #IVGN KPZ3121C; Invitrogen Corporation, Carlsbad, Calif.) and 2 nM Tyk2 in a total volume of 20 μL. Human Tyk2 kinase domain, comprising amino acids 886 to 1187 with 10 additional histidine residues (histidine tag) on the carboxy terminus, was expressed and purified from bacculovirus in-house at Array BioPharma Inc. (Boulder, Colo.). The histidine tag was cleaved after purification using standard conditions.

JAK2 = target: T2, JAK2 (Homo sapiens, UniProt O60674); assay: JAK2 Inhibition Assay (Omnia kinase fluorescence peptide substrate); details: averaged IC50 ranges; 25 μM (Km app) or 1 mM ATP, 5 nM JAK2
T2 construct: purchased Invitrogen Corporation, Carlsbad, Calif; IVGN PV4288
From the text: as §1, §2, §3, §4, §5
(§6) Compounds of Formula I were screened for their ability to inhibit JAK2 using the general enzyme inhibition assay method, in which the assay mixture contained 25 μM (Km app) or 1 mM ATP, 10 μM Omnia® Y7 peptide (Catalog #IVGN KNZ3071C, Invitrogen Corporation, Carlsbad, Calif.) and 5 nM JAK2 in a total volume of 20 μL. JAK2 was purchased from Invitrogen Corporation, Carlsbad, Calif. (catalog #IVGN PV4288).

JAK3 = target: T3, JAK3 (Homo sapiens, UniProt P52333); assay: JAK3 Inhibition Assay (Omnia kinase fluorescence peptide substrate); details: averaged IC50 ranges; 10 μM (Km app) or 1 mM ATP, 2.5 nM JAK3
T3 construct: purchased Invitrogen Corporation, Carlsbad, Calif; IVGN PV4080
T3 sequence (P52333 1-1124): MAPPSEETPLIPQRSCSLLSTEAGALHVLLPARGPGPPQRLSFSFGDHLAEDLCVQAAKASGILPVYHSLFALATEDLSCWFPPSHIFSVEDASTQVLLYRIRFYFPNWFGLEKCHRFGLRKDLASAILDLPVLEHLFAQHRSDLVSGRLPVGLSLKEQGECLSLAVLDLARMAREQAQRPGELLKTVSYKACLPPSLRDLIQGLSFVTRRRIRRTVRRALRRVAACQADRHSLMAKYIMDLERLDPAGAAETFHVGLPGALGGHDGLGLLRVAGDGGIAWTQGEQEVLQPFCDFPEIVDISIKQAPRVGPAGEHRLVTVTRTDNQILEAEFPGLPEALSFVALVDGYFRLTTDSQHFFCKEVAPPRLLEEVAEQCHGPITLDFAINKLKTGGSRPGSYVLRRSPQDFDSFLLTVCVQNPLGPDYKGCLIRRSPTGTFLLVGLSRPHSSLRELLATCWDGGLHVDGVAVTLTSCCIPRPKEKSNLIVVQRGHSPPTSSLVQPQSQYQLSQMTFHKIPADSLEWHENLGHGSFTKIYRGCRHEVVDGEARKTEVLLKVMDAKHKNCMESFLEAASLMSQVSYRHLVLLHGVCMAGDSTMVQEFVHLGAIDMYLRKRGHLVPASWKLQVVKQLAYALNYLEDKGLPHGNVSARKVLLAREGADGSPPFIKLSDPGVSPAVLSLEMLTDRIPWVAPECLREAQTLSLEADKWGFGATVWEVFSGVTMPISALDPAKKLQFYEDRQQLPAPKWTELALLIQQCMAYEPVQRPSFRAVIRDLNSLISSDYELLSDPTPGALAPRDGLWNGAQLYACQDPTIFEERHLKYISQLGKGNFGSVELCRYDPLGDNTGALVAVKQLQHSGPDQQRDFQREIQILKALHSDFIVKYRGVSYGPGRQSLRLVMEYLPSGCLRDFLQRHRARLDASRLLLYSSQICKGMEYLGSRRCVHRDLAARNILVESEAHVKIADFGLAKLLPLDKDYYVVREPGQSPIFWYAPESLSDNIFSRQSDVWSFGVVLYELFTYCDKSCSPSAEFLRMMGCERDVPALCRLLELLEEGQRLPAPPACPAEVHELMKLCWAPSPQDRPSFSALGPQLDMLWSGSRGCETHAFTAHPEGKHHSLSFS
From the text: as §1, §2, §3, §4, §5
as §6, with “JAK3” for “JAK2”, “10” for “25”, “2.5” for “5”, “PV4080).” for “PV4288).”

JAK1 = target: T4, JAK1 (Homo sapiens, UniProt P23458); assay: JAK1 Inhibition Assay (Omnia kinase fluorescence peptide substrate); details: averaged IC50 ranges; 40 μM (Km app) or 1 mM ATP, 15 nM JAK1
T4 construct: purchased Invitrogen Corporation, Carlsbad, Calif; IVGN PV4775
From the text: as §1, §2, §3, §4, §5
Compounds of Formula I were screened for their ability to inhibit JAK1 using the general enzyme inhibition assay method, in which the assay mixture contained 40 μM (Km app) or 1 mM ATP, 8 μM Omnia® Y12 peptide (Catalog #IVGN KPZ3121C; Invitrogen Corporation, Carlsbad, Calif.) and 15 nM JAK1 in a total volume of 20 μL. JAK1 was purchased from Invitrogen Corporation, Carlsbad, Calif. (catalog #IVGN PV4775).

T2 sequence (O60674 whole entry): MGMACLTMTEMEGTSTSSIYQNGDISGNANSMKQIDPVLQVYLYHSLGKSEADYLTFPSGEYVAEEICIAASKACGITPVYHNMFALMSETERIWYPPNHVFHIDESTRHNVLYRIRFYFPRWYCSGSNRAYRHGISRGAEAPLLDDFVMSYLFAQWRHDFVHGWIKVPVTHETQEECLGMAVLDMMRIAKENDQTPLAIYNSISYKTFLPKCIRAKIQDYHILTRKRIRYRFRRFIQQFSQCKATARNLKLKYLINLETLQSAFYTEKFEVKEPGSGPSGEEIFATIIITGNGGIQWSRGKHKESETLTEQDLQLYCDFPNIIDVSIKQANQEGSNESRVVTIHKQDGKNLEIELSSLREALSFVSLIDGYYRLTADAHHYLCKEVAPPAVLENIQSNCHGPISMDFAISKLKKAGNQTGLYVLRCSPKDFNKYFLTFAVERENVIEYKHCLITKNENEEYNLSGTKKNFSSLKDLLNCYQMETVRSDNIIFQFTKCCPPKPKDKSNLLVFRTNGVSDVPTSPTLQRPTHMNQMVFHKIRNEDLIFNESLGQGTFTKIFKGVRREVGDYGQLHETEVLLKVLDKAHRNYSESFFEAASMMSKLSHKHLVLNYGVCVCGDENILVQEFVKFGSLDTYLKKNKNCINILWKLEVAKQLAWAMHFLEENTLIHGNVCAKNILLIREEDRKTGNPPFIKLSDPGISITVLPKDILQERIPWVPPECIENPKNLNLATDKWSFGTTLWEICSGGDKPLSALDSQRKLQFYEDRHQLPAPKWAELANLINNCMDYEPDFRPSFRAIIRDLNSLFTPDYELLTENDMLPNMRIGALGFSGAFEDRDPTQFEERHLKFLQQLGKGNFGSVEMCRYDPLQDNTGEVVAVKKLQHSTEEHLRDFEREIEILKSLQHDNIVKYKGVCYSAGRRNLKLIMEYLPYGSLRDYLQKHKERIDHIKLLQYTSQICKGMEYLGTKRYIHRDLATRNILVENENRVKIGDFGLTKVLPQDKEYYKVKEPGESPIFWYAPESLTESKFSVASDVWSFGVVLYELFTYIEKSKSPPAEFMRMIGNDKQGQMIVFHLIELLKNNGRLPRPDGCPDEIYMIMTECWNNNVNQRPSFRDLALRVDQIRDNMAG
T4 sequence (P23458 whole entry): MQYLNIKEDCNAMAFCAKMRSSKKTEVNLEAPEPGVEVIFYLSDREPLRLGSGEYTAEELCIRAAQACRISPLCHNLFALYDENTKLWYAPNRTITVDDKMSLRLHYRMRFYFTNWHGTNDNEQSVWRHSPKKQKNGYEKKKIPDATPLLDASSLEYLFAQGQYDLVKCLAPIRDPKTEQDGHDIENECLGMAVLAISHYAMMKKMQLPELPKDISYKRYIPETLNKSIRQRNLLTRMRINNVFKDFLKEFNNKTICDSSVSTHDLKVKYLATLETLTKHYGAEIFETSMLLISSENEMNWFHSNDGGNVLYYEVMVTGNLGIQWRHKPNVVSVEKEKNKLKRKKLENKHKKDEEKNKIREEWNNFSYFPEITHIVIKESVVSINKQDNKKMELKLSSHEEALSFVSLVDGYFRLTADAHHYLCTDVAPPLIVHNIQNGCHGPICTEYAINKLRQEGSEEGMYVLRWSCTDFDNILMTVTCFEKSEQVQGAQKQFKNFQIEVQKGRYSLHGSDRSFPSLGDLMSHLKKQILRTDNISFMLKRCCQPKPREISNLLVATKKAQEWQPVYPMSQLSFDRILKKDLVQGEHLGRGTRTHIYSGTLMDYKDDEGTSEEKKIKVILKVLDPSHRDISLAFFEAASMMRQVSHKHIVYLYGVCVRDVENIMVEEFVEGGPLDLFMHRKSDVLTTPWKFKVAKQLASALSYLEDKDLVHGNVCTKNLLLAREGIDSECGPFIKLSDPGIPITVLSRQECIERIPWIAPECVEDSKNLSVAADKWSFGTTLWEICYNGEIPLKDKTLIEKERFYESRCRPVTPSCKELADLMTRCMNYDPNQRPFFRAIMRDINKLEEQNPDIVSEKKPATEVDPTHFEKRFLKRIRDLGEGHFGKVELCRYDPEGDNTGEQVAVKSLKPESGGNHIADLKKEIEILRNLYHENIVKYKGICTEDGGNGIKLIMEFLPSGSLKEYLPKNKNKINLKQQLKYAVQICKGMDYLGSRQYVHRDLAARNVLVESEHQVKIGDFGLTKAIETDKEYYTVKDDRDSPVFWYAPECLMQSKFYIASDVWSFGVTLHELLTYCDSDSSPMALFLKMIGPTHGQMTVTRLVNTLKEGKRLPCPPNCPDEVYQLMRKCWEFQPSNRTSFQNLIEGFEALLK

| SMILES | pIC50 (Human Tyk2 kinase domain) | pIC50 (JAK2) | pIC50 (JAK3) | pIC50 (JAK1) |
| --- | --- | --- | --- | --- |
| Cn1cc(-c2cc3nccn3c(-c3ccn(C(CCF)C4CC4)c3)n2)cn1 (stereo not shown) [Example 25, 5-(1-(1-cyclopropyl-3-fluoropropyl)-1H-pyrrol-3-yl)-7-(1-methyl-1H-pyrazol-4-yl)imidazo[1,2-c]pyrimidine] | > 8.00 | 7.00 to 8.00 | 7.00 to 8.00 | 7.00 to 8.00 |
| Cn1cc(-c2cc3nccn3c(-c3ccn(C4(CCF)CN(S(=O)(=O)C(F)(F)F)C4)c3)n2)cn1 [Example 26, 5-(1-(3-(2-fluoroethyl)-1-((trifluoromethyl)sulfonyl)azetidin-3-yl)-1H-pyrrol-3-yl)-7-(1-methyl-1H-pyrazol-4-yl)imidazo[1,2-c]pyrimidine] | > 8.00 | 7.00 to 8.00 | 7.00 to 8.00 | 7.00 to 8.00 |
| C=CC1(n2ccc(-c3nc(-c4cnn(C)c4)cc4nccn34)c2)CN(S(=O)(=O)C(F)(F)F)C1 [Example 27, 7-(1-methyl-1H-pyrazol-4-yl)-5-(1-(1-((trifluoromethyl)sulfonyl)-3-vinylazetidin-3-yl)-1H-pyrrol-3-yl)imidazo[1,2-c]pyrimidine] | > 8.00 | 7.00 to 8.00 | 7.00 to 8.00 | 7.00 to 8.00 |
| Cn1cc(-c2cc3nccn3c(-c3ccn([C@H](CCF)[C@@H]4CC4(F)F)c3)n2)cn1 [Example 28, 5-(1-((R)-1-((S)-2,2-difluorocyclopropyl)-3-fluoropropyl)-1H-pyrrol-3-yl)-7-(1-methyl-1H-pyrazol-4-yl)imidazo[1,2-c]pyrimidine] | 7.00 to 8.00 | 7.00 to 8.00 | 6.00 to 7.00 | 6.00 to 7.00 |
| Cn1cc(-c2cc3nccn3c(-c3cnn(C(CCCF)C4CC4)c3)n2)cn1 (stereo not shown) [Example 30, 5-(1-(1-cyclopropyl-4-fluorobutyl)-1H-pyrazol-4-yl)-7-(1-methyl-1H-pyrazol-4-yl)imidazo[1,2-c]pyrimidine] | 7.00 to 8.00 | 7.00 to 8.00 | 6.00 to 7.00 | 6.00 to 7.00 |
| COCCC(C1CC1(F)F)n1cc(-c2nc(-c3cnn(C)c3)cc3nccn23)cn1 (stereo not shown) [Example 31] | 6.00 to 7.00 | 6.00 to 7.00 | 6.00 to 7.00 | 6.00 to 7.00 |
| Cn1cc(-c2cc3nccn3c(-c3cnn(C4(CC=C(F)F)CN(S(=O)(=O)C(F)(F)F)C4)c3)n2)cn1 [Example 32, 5-(1-(3-(3,3-difluoroallyl)-1-((trifluoromethyl)sulfonyl)azetidin-3-yl)-1H-pyrazol-4-yl)-7-(1-methyl-1H-pyrazol-4-yl)imidazo[1,2-c]pyrimidine] | > 8.00 | > 8.00 | 7.00 to 8.00 | > 8.00 |
| CCOCCC1(n2cc(-c3nc(-c4cnn(C)c4)cc4nccn34)cn2)CN(S(=O)(=O)C(F)(F)F)C1 [Example 33, 5-(1-(3-(2-ethoxyethyl)-1-((trifluoromethyl)sulfonyl)azetidin-3-yl)-1H-pyrazol-4-yl)-7-(1-methyl-1H-pyrazol-4-yl)imidazo[1,2-c]pyrimidine] | 7.00 to 8.00 | 7.00 to 8.00 | 6.00 to 7.00 | 7.00 to 8.00 |
| Cn1cc(-c2cc3nccn3c(-c3cnn(C4CCCC4)c3)n2)cn1 [Example 34, 5-(1-cyclopentyl-1H-pyrazol-4-yl)-7-(1-methyl-1H-pyrazol-4-yl)imidazo[1,2-c]pyrimidine] | 6.00 to 7.00 | 6.00 to 7.00 | < 6.00 | < 6.00 |
| Cn1cc(-c2cc3nccn3c(-c3cnn(C(CCO)C4CC4(F)F)c3)n2)cn1 (stereo not shown) [Example 35, 3-(2,2-difluorocyclopropyl)-3-(4-(7-(1-methyl-1H-pyrazol-4-yl)imidazo[1,2-c]pyrimidin-5-yl)-1H-pyrazol-1-yl)propan-1-ol] | 6.00 to 7.00 | < 6.00 | < 6.00 | < 6.00 |
| Cn1cc(-c2cc3nccn3c(-c3cnn([C@H](CCF)C4CCC4)c3)n2)cn1 [Example 36, (R)-5-(1-(1-cyclobutyl-3-fluoropropyl)-1H-pyrazol-4-yl)-7-(1-methyl-1H-pyrazol-4-yl)imidazo[1,2-c]pyrimidine] | > 8.00 | 7.00 to 8.00 | 6.00 to 7.00 | 6.00 to 7.00 |
| Cn1cc(-c2cc3nccn3c(-c3cnn([C@@H](CCF)C4CCC4)c3)n2)cn1 [Example 37, (S)-5-(1-(1-cyclobutyl-3-fluoropropyl)-1H-pyrazol-4-yl)-7-(1-methyl-1H-pyrazol-4-yl)imidazo[1,2-c]pyrimidine] | 7.00 to 8.00 | 6.00 to 7.00 | 6.00 to 7.00 | 6.00 to 7.00 |
| C/C=C/[C@H](C1CC1)n1cc(-c2nc(-c3cnn(C)c3)cc3nccn23)cn1 [Example 38, (S,E)-5-(1-(1-cyclopropylbut-2-en-1-yl)-1H-pyrazol-4-yl)-7-(1-methyl-1H-pyrazol-4-yl)imidazo[1,2-c]pyrimidine] | 6.00 to 7.00 | 6.00 to 7.00 | < 6.00 | < 6.00 |
